Source: PMC12548419 (Journal of Virology, 2025)
Where “and” joins values, the source holds several entries; their conditions need not be identical. Equal entries are not always repeated. Where two headings read alike, the source gives them in different places.

Legend:
SFTSV [1] = assay: microbe, parasite or virus in culture; assay type: cell-based; settings: for EC50: Severe fever with thrombocytopenia syndrome virus
LCMV [2] = assay: microbe, parasite or virus in culture; assay type: cell-based, lymphocytic choriomeningitis virus (strain Armstrong); settings: for EC50: Mammarenavirus choriomeningitidis
in vivo [3] = settings: Sprague-Dawley, rat, po, 10 mg/kg
in vivo [4] = settings: cynomolgus monkey, po, 5 mg/kg
SFTSV [5] = tested on: SFTSV; design: species or system A129 mice; settings: mouse, in vivo
LCMV [6] = tested on: LCMV; design: species or system C57BL/6-Prf1^tm1Sdz/J mice; settings: mouse, in vivo
SFTSV [7] = assay type: cell-based, severe fever with thrombocytopenia syndrome virus
LCMV [8] = assay type: cell-based, lymphocytic choriomeningitis virus
[9] = Sprague-Dawley, rat, in vivo, po, 21 mg/kg
[10] = cynomolgus monkey, in vivo, po, 10.7 mg/kg
[11] = A549, 48 h, read-out: EC50 (μM) mean ± sd SFTSV A549
[12] = Huh-7, 48 h, read-out: EC50 (μM) mean ± sd SFTSV Huh-7
[13] = Vero, 48 h, read-out: EC50 (μM) mean ± sd SFTSV Vero
[14] = read-out: EC50 range for SFTSV over all cell lines evaluated
[15] = A549, 48 h, read-out: EC50 (μM) mean ± sd LCMV A549
[16] = BHK-21, 48 h, read-out: EC50 (μM) mean ± sd LCMV BHK-21
[17] = Vero, 48 h, read-out: EC50 (μM) mean ± sd LCMV Vero
[18] = read-out: EC50 range for LCMV over all cell lines evaluated

## O=c1ccn([C@@H]2O[C@](F)(CO)[C@@H](O)[C@H]2O)c(=O)[nH]1 [4′-FlU, 4′-Fluorouridine]
SFTSV [1]
  SI values SFTSV A549: > 210.67
  SI values SFTSV Huh-7: > 214.23
  SI values SFTSV Vero: > 245.98
SFTSV [1]; [11]
  EC50: 2.37 ± 0.16 µM
SFTSV [1]; [12]
  EC50: 2.33 ± 0.51 µM
SFTSV [1]; [13]
  EC50: 2.03 ± 0.82 µM
SFTSV [1]; [14]
  EC50: 2.03 to 2.37 µM
LCMV [2]
  SI values LCMV A549: > 4826.57
  SI values LCMV BHK-21: > 3389.68
  SI values LCMV Vero: > 12697.20
LCMV [2]; [15]
  EC50: 0.1 ± 0.01 µM
LCMV [2]; [16]
  EC50: 0.15 ± 0.05 µM
LCMV [2]; [17]
  EC50: 0.04 ± 0.01 µM
LCMV [2]; [18]
  EC50: 0.04 to 0.15 µM
In vivo [3]
  AUC0-t: 7280 ng·h/mL
  Cmax: 1370 ng/mL
  half-life: 3.39 ± 1.41 h
In vivo [4]
  AUC0-t: 10700 ng·h/mL
  Cmax: 1500 ng/mL
  half-life: 6.82 ± 0.46 h
In vitro
  CC50: > 500000 nM

## NC(=O)c1nc(F)c[nH]c1=O [T-705, favipiravir]
SFTSV [1]
  SI values SFTSV A549: > 1.79
  SI values SFTSV Huh-7: > 160.32
  SI values SFTSV Vero: > 24.23
SFTSV [1]; [11]
  EC50: 280 µM
SFTSV [1]; [12]
  EC50: 3.12 µM
SFTSV [1]; [13]
  EC50: 20.6 µM
LCMV [2]
  SI values LCMV A549: > 7.36
  SI values LCMV Vero: > 5.64
LCMV [2]; [15]
  EC50: 68 µM
LCMV [2]; [17]
  EC50: 88.6 µM
SFTSV [5]
  leukopenia, lymphocytopenia and reduction in platelet count (hematological parameters): relieved
  lung pathology scores: significantly lower pathology scores
  spleen histopathology scores: substantially reduced
  splenomegaly (spleen-to-body weight ratio): significantly ameliorated
  virus load in the liver, spleen, lung, and kidney (qRT-PCR and immunoplaque assays): significant reductions
SFTSV [5]; 300 mg/kg
  infectious viral titers in the spleen (immunoplaque assays): marked decreases
  plasma levels of IFN-γ, TNF-α, IL-1β and IL-6: significantly reduced
  viral RNA copies in the spleen (qRT-PCR): no statistically significant reduction
SFTSV [5]; po, 300 mg/kg
  body weight: slight initial weight loss followed by weight recovery at 5 days post-infection
  survival: survived
LCMV [6]
  body weight: parallel body weight with that of the vehicle-treated group
  spleen damage (spleen size, pathology score, H&E staining): marked pathological lesions
  viral RNA copies in the liver, spleen, lung, and kidney (qRT-PCR): no reduction in the number of viral RNA copies was observed except in the lungs
  viral titer in the liver, spleen, lung, and kidney (immunoplaque assay): reduced the viral titer in the tissues
LCMV [6]; 300 mg/kg
  plasma IFN-γ and granulocyte colony-stimulating factor: no significant effect
LCMV [6]; po, 300 mg/kg
  survival: no survivors remaining by the end of the study
In vitro
  CC50: > 500000 nM

## CC(=O)OC[C@@]1(F)O[C@@H](n2ccc(=O)n(COC(=O)c3cccnc3)c2=O)[C@H](OC(C)=O)[C@@H]1OC(C)=O [VV251]
SFTSV [1]
  SI values SFTSV A549: > 96.94
  SI values SFTSV Vero: > 168.75
SFTSV [1]; [11]
  EC50: 5.16 µM
SFTSV [1]; [12]
  EC50: 0.65 µM
SFTSV [1]; [13]
  EC50: 2.96 µM
SFTSV [1]; [14]
  EC50: 0.65 to 5.16 µM
LCMV [2]
  SI values LCMV A549: > 6559.96
  SI values LCMV BHK-21: > 3177.56
  SI values LCMV Vero: > 3628.85
  fold lower EC50 than T-705 against LCMV: 849.6 fold and 632.9 fold
LCMV [2]; [15]
  EC50: 0.08 µM
LCMV [2]; [16]
  EC50: 0.16 ± 0.05 µM
LCMV [2]; [17]
  EC50: 0.14 µM
LCMV [2]; [18]
  EC50: 0.08 to 0.16 µM
SFTSV [7]
  antiviral effect on addition of exogenous natural nucleosides: competitively reversed by supplementation with exogenous uridine and cytidine
LCMV [8]
  antiviral effect on addition of exogenous natural nucleosides: competitively reversed by supplementation with exogenous uridine and cytidine
SFTSV [5]
  leukopenia, lymphocytopenia and reduction in platelet count (hematological parameters): relieved
  lung pathology scores: significantly lower pathology scores
  plasma levels of IFN-γ, TNF-α, IL-1β and IL-6: significantly reduced
  spleen histopathology scores: substantially reduced
  splenomegaly (spleen-to-body weight ratio): significantly ameliorated
  virus load in the liver, spleen, lung, and kidney (qRT-PCR and immunoplaque assays): significant reductions
SFTSV [5]; po, 1 mg/kg
  body weight: significant reduction in body weight
  survival: only one mouse surviving until the end of the study
SFTSV [5]; po, 5 mg/kg
  mice that died: one
SFTSV [5]; po, 10 mg/kg
  body weight: remained stable
LCMV [6]
  body weight: remained stable
  hematological parameters (white blood cell, platelet, lymphocyte count): ameliorated viremia induced by LCMV infection
  number of viral RNA copies relative to the vehicle group: more than one order of magnitude lower
  plasma IFN-γ and granulocyte colony-stimulating factor: statistically significant reduction
  spleen damage (spleen size, pathology score, H&E staining): ameliorated spleen damage efficiently
  viral RNA copies in the liver, spleen, lung, and kidney (qRT-PCR): significantly decreased
  viral titer in the liver, spleen, lung, and kidney (immunoplaque assay): significantly decreased
[9]
  AUC0-t: 9,714 ng·h/mL
  Cmax: 1,598 ng/mL
  T1/2: 6.34 ± 0.75 h
[10]
  AUC0-t: 14,922 ng·h/mL
  Cmax: 2,358 ng/mL
  T1/2: 5.45 ± 0.82 h
In vitro
  CC50: > 500000 nM
